Data published in patent publication US9016829B2, “Ink composition, ink set, and image forming method” (FUJIFILM Corporation, priority 2011, dated 2015).

Test: Solubility with respect to pure water
Format: physicochemical
Conditions: 25° C.

solubility with respect to pure water: water (25° C.): 7.6 g/l)
Structure (SMILES): CC(C)(O)C(=O)c1ccc(OCCO)cc1 [IRGACURE 2959]
